Among the data in ChEMBL document CHEMBL3779875, “Cytotoxic Evaluation against Breast Cancer Cells of Isoliquiritigenin Analogues from Spatholobus suberectus and Their Synthetic Derivatives” (J Nat Prod, 2016) are IC50 and Activity values, retold here.

The structures appear in SMILES notation. Active and inactive are the calls of the source. The calls are words filed in the database; no cut-off is given here.

What is called IC50 is the point on the concentration scale where inhibition reaches its midpoint.

One assay deals with MCF7. The assay is described as follows: Cytotoxicity against human MCF7 cells assessed as reduction in cell viability after 72 hrs by MTT assay. To be noted: for IC50: MCF7, 72 h. It counts as functional, cell-based.
The subject of the next assay is MDA-MB-231. Nature of the assay: Cytotoxicity against human MDA-MB-231 cells assessed as reduction in cell viability after 72 hrs by MTT assay. It counts as functional, cell-based. To be noted: for IC50: MDA-MB-231, 72 h. For orientation: Tetrazolium assays rely on reduction of a dye to a coloured formazan, in cell work by metabolically active cells.

`O=C(/C=C/c1ccc(O)cc1)c1cc(O)ccc1O`: the IC50 in the assay on MCF7 and in the assay on MDA-MB-231 was over 10 µM each time.
Consider `O=C(/C=C/c1ccc(O)cc1)c1ccc(O)cc1O` [ISOLIQUIRITIGENIN], for which the IC50 in the assay with MCF7 and in the assay on MDA-MB-231 was over 10 µM in each case.
`COc1ccc(C(=O)/C=C/c2ccc(O)c(OC)c2)c(OC)c1`: the IC50 was 3.1 µM in the assay with MCF7 and over 10 µM in the assay with MDA-MB-231.
For `O=C(/C=C/c1ccc(O)cc1)c1c(O)cc(O)cc1O` [4,2',4',6'-TETRAHYDROXYCHALCONE], in that order: over 10 µM and over 10 µM.
The corresponding values for `COc1cc(C(=O)/C=C/c2ccc(Cl)c(Cl)c2)cc(OC)c1OC` are 7 µM and over 10 µM.
As to `O=C(/C=C/c1ccc(O)cc1)c1ccc(O)cc1` [4,4'-DIHYDROXYCHALCONE], the IC50 in the assay on MCF7 and with MDA-MB-231 was over 10 µM each time.
For `O=C(/C=C/c1ccccc1)c1ccc(O)cc1O` [2',4'-DIHYDROXYCHALCONE], the IC50 in the assay with MCF7 and with MDA-MB-231 was over 10 µM each time.
On to `O=C(/C=C/c1ccc(O)cc1)c1ccc(O)c(O)c1O`, for which the IC50 with MCF7 and in the assay with MDA-MB-231 was over 10 µM each time.
With `COc1ccc(/C=C/C(=O)c2ccc(OC)cc2OC)cc1` [METOCHALCONE], the IC50 with MCF7 is 1.5 µM; with MDA-MB-231 it was 7.9 µM.
As for `COc1ccc(/C=C/C(=O)c2cc(OC)c(OC)c(OC)c2)cc1`, the values for the concentration for half-maximal inhibition (IC50) in the assay on MCF7 and with MDA-MB-231 were 0.71 µM and 6.5 µM, respectively.
In the case of `CC(=O)O[C@H]1C(=O)[C@@]2(C)[C@H]([C@H](OC(=O)c3ccccc3)[C@]3(O)C[C@H](OC(=O)[C@H](O)[C@@H](NC(=O)c4ccccc4)c4ccccc4)C(C)=C1C3(C)C)[C@]1(OC(C)=O)CO[C@@H]1C[C@@H]2O` [PACLITAXEL], the IC50 with MDA-MB-231 stood at 0.0039 µM.
With `COc1cc(/C=C/C(=O)c2ccc(OC)c(OC)c2OC)cc(OC)c1OC`, the IC50 is over 10 µM in the assay with MCF7 and 7.4 µM in the assay on MDA-MB-231.
As to `COc1ccc2c(c1)OC(c1ccccc1)CC2=O` (stereo not given), the outcome in the assay on MCF7 and with MDA-MB-231 was inactive.
Turning to `O=C(/C=C/c1ccc(O)cc1)c1cc(Cc2c(O)ccc(C(=O)/C=C/c3ccc(O)cc3)c2O)c(O)cc1O`, the IC50 in the assay on MCF7 and with MDA-MB-231 was over 10 µM in each case.
As to `O=C1CC(c2ccc(O)cc2)Oc2cc(O)cc(O)c21` (stereo not given), the outcome in the assay with MCF7 and in the assay with MDA-MB-231 was inactive.
In the case of `O=C(CCc1ccc(O)cc1)c1c(O)cc(O)cc1O` [PHLORETIN], the IC50 with MCF7 and in the assay with MDA-MB-231 was over 10 µM each time.
Regarding `COc1ccc(C(=O)CCc2ccccc2)c(O)c1`, the IC50 with MCF7 and in the assay with MDA-MB-231 was over 10 µM throughout.
Consider `O=C(CCc1ccc(O)cc1)c1ccc(O)cc1O` [DAVIDIGENIN], for which the IC50 in the assay with MCF7 and with MDA-MB-231 was over 10 µM throughout.
